# How the values were obtained:
# [1] = tested on: skin samples derived from mouse dorsal body hair skin (C57BL/6N) grafted onto Balb/c nu/nu mice; assay: Hair growth activity: hair shaft length follow-up at transplanted skin samples after topical application; type: in vivo
# Description: C57BL/6N mice (male) and Balb/c nu/nu mice (female) were purchased from Japan SLC, Inc.(Japan) and bred, and were thereafter made available for the following testing. Note that the testing and breeding of animals complied with pertinent laws, regulations, ordinances, and guidelines, and was performed with the approval of the Experimental Ethics Review Board of the Institute of Physical and Chemical Research.
# The following reagents were respectively prepared. • Placebo: 60% aqueous ethanol solution • Working Example 1: 0.05% solution of palmitoyl • dipeptide-5 diaminohydroxybutyrate (3) Preparation of Skin Samples Derived from Mouse Dorsal Body Hair Skin
# To collect dorsal body hair skin in the form of anagen stage VI skin 12 to 14 days following depilation, C57BL/6N mice of age 7 to 8 weeks were depilated at locations where dorsal body hair skin was intended to be collected, and were bred for 12 to 14 days. The depilated C57BL/6N mice were thereafter euthanized by cervical dislocation, following which a suitable amount of dorsal body hair skin was collected from the locations at which dorsal body hair skin was intended to be collected.
# The collected skin was immersed in DMEM culture medium (hereinafter “DMEM 10”) which contained 10 mM HEPES, 10% fetal bovine serum, and 1% penicillin/streptomycin solution. The collected dorsal body hair skin was grasped with bent-nose curved tweezers and was treated by immersion for 10 seconds in a sterilizing solution. Sterilization treatment was performed by carrying out treatment with 7% povidone iodine solution two times, treatment with PBS (-) three times, and treatment with DMEM 10 two times, in this order, with fresh solutions respectively being used each time. Following sterilization treatment, these were immersed in clean DMEM 10.
# Following sterilization treatment, the dorsal body hair skin was cut into pieces and formed into blocks. The transparent connective tissue which adhered to the cutaneous muscle layer of the skin was excised therefrom using curved scissors, and hair groups were cut into rectangular strips in parallel fashion with respect to the direction of the wave of the hair. At this time, these were cut into blocks such that there were 6 rows of hair follicles along the long axis, adjustment having been carried out so that there were 5 rows of hair follicles along the short axis.
# The skin samples derived from dorsal body hair skin that were prepared in accordance with the foregoing were grafted onto Balb/c nu/nu mice of age 4 to 6 weeks.
# More specifically, mice were anesthetized in the usual way using isoflurane gas. The dorsal area of the mice was then disinfected using 7% povidone iodine solution, following which the mice were made to assume a naturally recumbent posture. In addition, a Mani ophthalmic knife (Mani, Inc.; Japan) was used to pierce the skin at the dorsal area of the mice, the grafts which were formed extending from the epidermal layer of the skin to the subdermal layer. The skin samples derived from dorsal body hair skin were inserted into the grafts formed thereat in such fashion as to cause the hair groups to be directed toward the body surface side of the grafts. Skin sample transplanted depth was adjusted so as to cause the top portion of the hair group to be in a state such that it was exposed at the top portion of the graft. To protect the grafts, Nurseban (registered trademark) (Sunplanet Co., Ltd.; Japan) and surgical tape (3M Japan Limited; Japan) were then used as protective tape to cover the grafts at which the skin samples derived from dorsal body hair skin had been transplanted. The protective tape was removed 5 to 7 days following transplantation, and survival of the transplanted skin samples derived from dorsal body hair skin was determined by visual inspection or digital microscopy (Keyence Corporation: Japan), after which follow-up observation was carried out.
# For the first hair cycle, 60% aqueous ethanol solution was applied thereto as placebo. […]
# [2] = tested on: hair shafts from skin samples transplanted in Balb/c nu/nu mice; assay: Hair-diameter-increasing activity: hair shaft diameter of zigzag hairs that completed the second cycle; type: in vivo, mouse
# Description: Measurement of increase in hair diameter was carried out using hair shafts that had completed the second cycle at the foregoing Exemplary Test 1. Of the hair shafts that were collected, three zigzag hairs were used for measurement of increase in hair diameter. Three locations were selected in regions where diameter was large in the central portions thereof using a square 100 μm on a side. For each of the selected regions, five different locations were further selected, and hair shaft diameter of the zigzag hairs thereat was measured to evaluate the degree to which increase in hair diameter had occurred.
# [3] = tested on: FGF-7 gene; assay: FGF-7 gene expression in human dermal papilla cells (real-time PCR, GAPDH internal standard); type: cell-based; details: 24 hours, FIG. 4
# Description: Testing and evaluation were carried out with maintenance and culture of human dermal papilla cells being performed in the same manner as at Exemplary Test 3, above.
# As drugs for testing, drug solutions of the following respective concentrations (final concentrations) were prepared and used. • Comparative Example 1: 100 μM adenosine • Working Example 1: 1 μM palmitoyl dipeptide-5 diaminohydroxybutyrate • Working Example 2: 10 μM palmitoyl dipeptide-5 diaminohydroxybutyrate • Working Example 3: 300 μM palmitoyl dipeptide-5 diaminohydroxybutyrate
# A 24-well plate was seeded with human dermal papilla cells so as to obtain 6×10^3 thereof per well. […]
# Following culture, total RNA was extracted from the respective wells and was recovered, and this was reverse-transcribed into cDNA. […] The GAPDH gene was used as an internal standard, the amount of FGF-7 gene expression being calculated relative to the negative control group.
# A FastGene RNA Basic Kit (Catalog No. FG-80250; Nippon Genetics Co., Ltd. (Japan)) was used to recover total RNA from cells. […] Concentration of the recovered RNA was measured using a NanoDrop Lite (Catalog No. ND-LITE; Thermo Fisher Scientific K.K.), and this was stored at −80° C. until the following cDNA creation procedure.
# A FastGene scriptase II cDNA synthesis 5× Ready Mix (Catalog No. NE-LS641; Nippon Genetics Co., Ltd. (Japan)) was used to synthesize cDNA. […]
# [4] = tested on: human dermal papilla cells; assay: Dermal papilla cell growth promotion (Cell Count Reagent SF, absorbance 450 nm); type: cell-based; details: FIG. 3
# Description: Human dermal papilla cells (Catalog No. CA602t05a; derived from person; Toyobo Co., Ltd. (Japan)) were purchased, testing and evaluation being carried out with maintenance and culture of cells being performed as described in the protocol.
# As drugs for testing, drug solutions consisting of culture medium for human dermal papilla cells containing palmitoyl dipeptide-5 diaminohydroxybutyrate in the following respective concentrations (final concentrations) were prepared, and these were used. • Working Example 1: 11.54709375 μM • Working Example 2: 23.0941875 μM • Working Example 3: 46.188375 μM • Working Example 4: 92.37675 μM • Working Example 5: 184.7535 μM • Working Example 6: 369.507 μM
# A 96-well plate was seeded with human dermal papilla cells so as to obtain 1×10^3 thereof per well. […] After this had been added thereto, absorbance (measurement wavelength 450 nm; reference wavelength 620 nm) of the culture supernatant was measured. Based on these values, the cell growth rates at the respective wells were calculated, at which time the cell growth rate of the control group at which nothing had been added was taken to be 100%.
# [5] = 0.05% solution, second hair cycle vs placebo applied in first hair cycle
# [6] = solution containing 0.05%, applied at transplanted skin samples in mice
substance,measurement,setting,value
palmitoyl dipeptide-5 diaminohydroxybutyrate,Hair shaft elongation rate (mm/day),"[1]; 0.05% solution applied topically, second hair cycle, placebo (first hair cycle) 0.38 ± 0.06",0.39 ± 0.06 mm/day
same,Maximum hair shaft length (mm),"[1]; 0.05% solution applied topically, second hair cycle, placebo (first hair cycle) 4.9 ± 0.4, * p<0.05",5.2 ± 0.2 * mm
same,Hair shaft elongation rate: Percent change relative to reference data,[1]; [5],100.63%
same,Maximum hair shaft length: Percent change relative to reference data,[1]; [5],105.19%
same,Hair growth activity (in words),[1]; solution containing 0.05%,exhibit hair growth activity
same,Hair shaft elongation rate as compared with reference data (in words),[1]; [6],improvement in hair shaft elongation rate
same,Maximum hair shaft length as compared with reference data (in words),[1]; [6],significant improvement
same,Hair diameter as compared with 60% aqueous ethanol control (in words),[2]; hair shafts which had completed the second cycle,clear increase in hair diameter
same,Hair shaft diameter: Percent increase (%),[2]; second hair cycle vs placebo applied in first hair cycle,124%
same,Hair shaft diameter (μm),"[2]; zigzag hairs, second hair cycle, 0.05% solution, placebo (first hair cycle) 18.5 ± 3.1, ** p<0.01",22.9 ± 2.5 ** μm
same,Amount of expression of the FGF-7 gene as compared with control group at which nothing had been added,[3]; 1 μM and 10 μM (Working Examples 1 and 2),increase in the amount of expression of the FGF-7 gene
same,Amount of expression of the FGF-7 gene compared with 100 μM adenosine (Comparative Example 1),[3]; increasing the amount added,greater than that which was produced as a result of action of adenosine
same,Cell growth rate as compared with control group at which nothing had been added (control = 100%),"[4]; 11.54709375 to 369.507 μM (Working Examples 1 to 6), 24, 48 or 72 hours",increase in cell growth rate
same,Concentration dependence of cell growth,"[4]; 11.54709375 to 369.507 μM, peak at concentration of Working Example 5 (184.7535 μM)",induced cell growth in concentration-dependent fashion

# — patent US20230355498A1, “HAIR GROWTH AGENT” (ADJUVANT HOLDINGS CO., LTD., priority 2020, published 2023)
